Among the data in PubChem BioAssay AID1259408 (Genetic Toxicology Data Bank (GENE-TOX), 2018) are mutagenic call and call values, retold here.

In this series the test system is GENE-TOX genotoxicity assays, various organisms and cells. Description: GENE-TOX mutagenicity studies. Conditions: for call: Assay Type: In vivo carcinogenicity studies.
Setting [1] is: Species/Cell Type: Escherichia coli polA (W3119 vs P3478), Assay Type: Rec-assay, DNA effects (bacterial DNA repair), Assay Code: RE1T, Evaluation Type: Evaluation A (Pre-1980).
[2] abbreviates: Species/Cell Type: Fischer rat embryo (RLV/1706) cells, Assay Type: Cell transformation, viral enhanced, Assay Code: CTR+, Evaluation Type: Evaluation A (Pre-1980).
Where [3] appears, read: Species/Cell Type: Human diploid fibroblasts, Assay Type: Unscheduled DNA synthesis (UDS) in vitro, DNA effects, Assay Code: UDH-, Evaluation Type: Evaluation A (Pre-1980).
[4] abbreviates: Species/Cell Type: Nonhuman, Assay Code: CCG+, Evaluation Type: Evaluation A (Pre-1980).
[5] abbreviates: Species/Cell Type: Nonhuman, Assay Type: Sister-chromatid exchange (SCE) in vivo, Assay Code: SC3+, Evaluation Type: Evaluation B (Post-1980).
The mark [6] stands for this setting: Species/Cell Type: Saccharomyces cerevisiae, Assay Type: Mitotic recombination or gene conversion, Assay Code: YEH+, Evaluation Type: Evaluation A (Pre-1980).
Where [7] appears, read: Species/Cell Type: Salmonella typhimurium (one or more of the five standard strains: TA98, TA100, TA1535, TA1537, and TA1538), Assay Type: Histidine reverse gene mutation, Ames assay, Assay Code: SAL+*, Activation: With metabolic activation, Evaluation Type: Evaluation A (Pre-1980).
Setting [8] is: Species/Cell Type: Salmonella typhimurium, Assay Type: Forward and reverse gene mutation, host-mediated assay, Assay Code: HMA+, Evaluation Type: Evaluation A (Pre-1980).
The mark [9] stands for this setting: Species/Cell Type: Syrian hamster embryo (SHE) cells, Assay Type: Cell transformation, clonal assay, Assay Code: CTC+, Evaluation Type: Evaluation A (Pre-1980).
Where [10] appears, read: Species/Cell Type: Mammalian polychromatic erythrocytes, Assay Type: Micronucleus test, chromosome aberrations, Assay Code: MNT+, Evaluation Type: Evaluation B (Post-1980).
Setting [11] is: Species/Cell Type: Salmonella typhimurium (one or more of the five standard strains: TA98, TA100, TA1535, TA1537, and TA1538), Assay Type: Histidine reverse gene mutation, Ames assay, Assay Code: SAL+, Evaluation Type: Evaluation A (Pre-1980).
[12] abbreviates: Species/Cell Type: Nonhuman, Assay Code: CCG+L, Evaluation Type: Evaluation A (Pre-1980).
The mark [13] stands for this setting: Species/Cell Type: Saccharomyces cerevisiae, Assay Type: Mitotic recombination or gene conversion, Assay Code: YEH-, Evaluation Type: Evaluation A (Pre-1980).
Setting [14] is: Species/Cell Type: Salmonella typhimurium, Assay Type: Forward and reverse gene mutation, host-mediated assay, Assay Code: HMA-, Evaluation Type: Evaluation A (Pre-1980).
Setting [15] is: Species/Cell Type: Escherichia coli polA (W3119 vs P3478), Assay Type: Rec-assay, DNA effects (bacterial DNA repair), Assay Code: RE1+, Evaluation Type: Evaluation A (Pre-1980).
Setting [16] is: Species/Cell Type: Drosophila melanogaster, Assay Type: Sex-linked recessive lethal gene mutation, Assay Code: SRLT, Evaluation Type: Evaluation A (Pre-1980).
Setting [17] is: Species/Cell Type: Salmonella typhimurium (one or more of the five standard strains: TA98, TA100, TA1535, TA1537, and TA1538), Assay Type: Histidine reverse gene mutation, Ames assay, Assay Code: SALT, Evaluation Type: Evaluation A (Pre-1980).

Molecules are shown by their SMILES. Activity calls are given as the source filed them. The rule behind the calls is not given here.

Turning to `Nc1ccc(-c2ccccc2)cc1`, the mutagenic call is “active; positive” (Species/Cell Type: Escherichia coli polA (W3110 vs P3478), Assay Type: Rec-assay, DNA effects (bacterial DNA repair), Assay Code: RE2+, Evaluation Type: Evaluation A (Pre-1980)); “no conclusion” under setting [1]; “active; positive” under setting [2]; “inactive; negative” under setting [3]; “no conclusion” (Species/Cell Type: Mammalian polychromatic erythrocytes, Assay Type: Micronucleus test, chromosome aberrations, Assay Code: MNTT, Evaluation Type: Evaluation A (Pre-1980)); “active; positive” (Species/Cell Type: Mouse embryo (AKR/ME) cells, Assay Type: Cell transformation, Assay Code: CTK+, Evaluation Type: Evaluation A (Pre-1980)). Also, the mutagenic call was “active; positive” under setting [5]; “active; positive” (Species/Cell Type: Rat primary hepatocytes, Assay Type: Unscheduled DNA synthesis (UDS) in vitro, DNA effects, Assay Code: UDP+, Evaluation Type: Evaluation A (Pre-1980)); “active; positive” under setting [6]; “active; positive” under setting [7]; “active; positive” (Species/Cell Type: Salmonella typhimurium, Assay Type: Forward and reverse gene mutation, body fluid assay, Assay Code: BFU+, Evaluation Type: Evaluation A (Pre-1980)); “active; positive” under setting [8]. Also, under setting [9], the mutagenic call was “active; positive”. In addition, the call under setting [4] was “active; positive”.

With `CC1OC1C` (stereo not given), the mutagenic call (Species/Cell Type: Neurospora crassa, Assay Type: Reverse gene mutation, Assay Code: NER+, Evaluation Type: Evaluation A (Pre-1980)) is “active; positive”.

For `COC(=O)Nc1ncc(-c2ccc(OC)cc2)[nH]1`, the mutagenic call under setting [8] was “active; positive”.

Regarding `CCN(CC)CCCNC(=O)N/N=C/c1ccc([N+](=O)[O-])o1`, the mutagenic call (Species/Cell Type: Escherichia coli WP2 UVRA, Assay Type: Tryptophan reverse gene mutation, Assay Code: WPU+, Evaluation Type: Evaluation A (Pre-1980)) was “active; positive”.

In the case of `COc1ccc2c(c1)c(CC(=O)O)c(C)n2C(=O)c1ccc(Cl)cc1`, the mutagenic call runs as follows: (Species/Cell Type: Human lymphocytes, Assay Type: Sister-chromatid exchange (SCE) in vivo, Assay Code: SCY+, Evaluation Type: Evaluation B (Post-1980)) “active; positive”; (Species/Cell Type: Human, Assay Type: Sister-chromatid exchange (SCE) in vitro, Assay Code: SC1T, Evaluation Type: Evaluation B (Post-1980)) “no conclusion”; under setting [10], “active; positive”; (Species/Cell Type: Nonhuman, Assay Type: Sister-chromatid exchange (SCE) in vitro, Assay Code: SC2T, Evaluation Type: Evaluation B (Post-1980)) “no conclusion”.

`O=NN1CCCC1`: the mutagenic call runs as follows: (Species/Cell Type: Chinese hamster lung (V79) cells, Assay Type: Forward gene mutation at the HPRT or ouabain locus, Assay Code: V79+, Evaluation Type: Evaluation A (Pre-1980)) “active; positive”; under setting [5], “active; positive”; (Species/Cell Type: Rat primary hepatocytes, Assay Type: Unscheduled DNA synthesis (UDS) in vitro, DNA effects, Assay Code: UDP+D, Dose Response: With dose response, Evaluation Type: Evaluation A (Pre-1980)) “active; positive”; under setting [7], “active; positive”. Further, the call under setting [4] is “active; positive”.

Turning to `C[CH2][Pb]([CH2]C)([CH2]C)[CH2]C`, the mutagenic call (Species/Cell Type: Syrian hamster embryo (SA7/SHE) cells, Assay Type: Cell transformation, viral enhanced, Assay Code: CT7+, Evaluation Type: Evaluation A (Pre-1980)) is “active; positive”.

With `CCCN(CCCC(=O)O)N=O`, the mutagenic call under setting [11] was “active; positive”.

For the molecule `Cc1ccc2nc3c(ccc4ccccc43)c(C)c2c1`, the mutagenic call (Species/Cell Type: Escherichia coli polA (W3110 vs P3478), Assay Type: Rec-assay, DNA effects (bacterial DNA repair), Assay Code: RE2T, Evaluation Type: Evaluation A (Pre-1980)) is reported as “no conclusion”; the mutagenic call under setting [1] is on record as “no conclusion”; the mutagenic call under setting [2] is “active; positive”; the mutagenic call (Species/Cell Type: Mouse (BALB/c-3T3) cells, Assay Type: Cell transformation, Assay Code: CTB-, Evaluation Type: Evaluation A (Pre-1980)) was “inactive; negative”; the mutagenic call under setting [13] is “inactive; negative”; the mutagenic call under setting [7] was “active; positive”. The mutagenic call reads like this: under setting [14], “inactive; negative”; under setting [9], “active; positive”. Besides, the call under setting [12] was “active; positive”.

As to `ONc1cccc2ccccc12`, the mutagenic call is “active; positive” under setting [15]; “active; positive” (Species/Cell Type: Neurospora crassa, Assay Type: Forward gene mutation, Assay Code: NEF+, Evaluation Type: Evaluation A (Pre-1980)); “active; positive” under setting [6]; “active; positive” under setting [11]; “inactive; negative” under setting [14]. The call under setting [12] is “active; positive”.

As to `Cc1c2c(c(CO)c3ccccc13)[C@H](O)[C@@H](O)c1ccccc1-2`, where the note is “Species/Cell Type: Chinese hamster lung (V79) cells, Assay Type: Forward gene mutation at the HPRT or ouabain locus, Assay Code: V79-*, Activation: With metabolic activation, Evaluation Type: Evaluation A (Pre-1980)”, the mutagenic call was “inactive; negative”. Further, the call (Species/Cell Type: Nonhuman, Assay Code: CCGT, Evaluation Type: Evaluation A (Pre-1980)) is given as “no conclusion”.

In the case of `COc1cc(O)c2c(=O)c(O)c(-c3ccc(O)c(O)c3)oc2c1`, the mutagenic call (Species/Cell Type: Mammalian polychromatic erythrocytes, Assay Type: Micronucleus test, chromosome aberrations, Assay Code: MNTT, Evaluation Type: Evaluation B (Post-1980)) was “no conclusion”.

`O=S(O)CO`: where the note is “Species/Cell Type: Drosophila melanogaster, Sex: Male, Assay Type: Heritable translocation test, chromosome aberrations, Assay Code: DHTT, Evaluation Type: Evaluation A (Pre-1980)”, the mutagenic call is given as “no conclusion”.

Take `COC([CH2][Hg+])CNC(=O)C1CCC(C)(C(=O)[O-])C1(C)C.O=C([O-])C[S-].[H+].[H+]` (stereo not given): the mutagenic call (Species/Cell Type: Mammalian oocytes or early embryo, Assay Type: Chromosome aberrations in vivo, Assay Code: CYO-, Evaluation Type: Evaluation A (Pre-1980)) was “inactive; negative”.

For `C=CN(CC)N=O`, the mutagenic call (Species/Cell Type: Arabidopsis species, Assay Type: Gene mutation, Assay Code: ARM+D, Dose Response: With dose response, Evaluation Type: Evaluation A (Pre-1980)) is “active; positive”.

Take `CCCCCCCCCC(=O)OCCCN1CCN(C2Cc3ccccc3Sc3ccc(SC)cc32)CC1` (stereo not given): the mutagenic call (Species/Cell Type: Rodents, Sex: Male, Assay Type: Dominant lethal test, Assay Code: DLT-, Evaluation Type: Evaluation A (Pre-1980)) is “inactive; negative”.

For the molecule `CCBr`, under setting [16], the mutagenic call is on record as “no conclusion”.

In the case of `NC(=S)Nc1ccccc1`, the call (Species/Cell Type: Nonhuman, Assay Code: CCG-L, Evaluation Type: Evaluation A (Pre-1980)) is “inactive; negative”.

Consider `Cc1ccccc1N=Nc1c(O)ccc2ccccc12`, for which the mutagenic call (Species/Cell Type: Bacillus subtilis (H17 vs M45T), Assay Type: Rec-assay, spot test, DNA effects (bacterial DNA repair), Assay Code: REXT, Evaluation Type: Evaluation A (Pre-1980)) is “no conclusion”. For the same molecule, the call under setting [4] is “active; positive”.

`OC(O)C(F)(F)F`: under setting [17], the mutagenic call was “no conclusion”.

Consider `CCC(C)c1cc([N+](=O)[O-])cc([N+](=O)[O-])c1O` (stereo not given), for which the mutagenic call was “active; positive” (Species/Cell Type: Bacillus subtilis (H17 vs M45), Assay Type: Rec-assay, spot test, DNA effects (bacterial DNA repair), Assay Code: REW+, Evaluation Type: Evaluation A (Pre-1980)); “no conclusion” under setting [16]; “inactive; negative” (Species/Cell Type: Escherichia coli WP2 UVRA, Assay Type: Tryptophan reverse gene mutation, Assay Code: WPU-*, Activation: With metabolic activation, Evaluation Type: Evaluation A (Pre-1980)); “active; positive” under setting [15]; “inactive; negative” under setting [3]; “active; positive” (Species/Cell Type: Saccharomyces cerevisiae, Assay Type: Mitotic recombination or gene conversion, Assay Code: YEC+, Evaluation Type: Evaluation A (Pre-1980)). Further, the mutagenic call was “inactive; negative” under setting [13] and “no conclusion” under setting [17].

Take `COC(=O)N/N=C/c1c[n+]([O-])c2ccccc2[n+]1[O-]`: under setting [10], the mutagenic call is “active; positive”.

As for `O=Cc1ccccc1[N+](=O)[O-]`, under setting [11], the mutagenic call was “active; positive”.
